Each structure is given as a SMILES string.

Data set [1] can be described thus: Effect Simulation of Aggregation Inhibitor, AFM observation of fibrils (FIG. 6). Format: physicochemical. To be noted: aggregation inhibitors sucrose (1) and phenol (2); inhibitor:drug:water 1:3:100, lyophilized, PBS pH 7.4, AFM. On the procedure: In this embodiment, simulation experiments of anti-aggregation effects are carried out using liraglutide (Lira) and semaglutide (Sema) as examples, respectively, with specific methods as follows.
A mixture of aggregation inhibitors (aggregation inhibitor 1 is sucrose, and aggregation inhibitor 2 is phenol), a drug substance, and deionized water are mixed at a weight ratio of 1:3:100 and subsequently lyophilized. PBS (pH 7.4) is added dropwise to the lyophilized drug powder to simulate gradual infiltration of the drug inside THE microsphere. Afterwards, a portion of the drug is dissolved in the PBS, and an atomic force microscope (AFM) is used to observe whether fibrils are formed by the drug and to simulate structural changes of the drug during the slow permeation process inside the microsphere.

For data set [2] the following is noted: high-concentration conditions; cited from earlier work.

Turning to `CCCCCCCCCCCCCCCC(=O)N[C@@H](CCC(=O)NCCCC[C@H](NC(=O)[C@H](C)NC(=O)[C@H](C)NC(=O)[C@H](CCC(N)=O)NC(=O)CNC(=O)[C@H](CCC(=O)O)NC(=O)[C@H](CC(C)C)NC(=O)[C@H](Cc1ccc(O)cc1)NC(=O)[C@H](CO)NC(=O)[C@H](CO)NC(=O)[C@@H](NC(=O)[C@H](CC(=O)O)NC(=O)[C@H](CO)NC(=O)[C@@H](NC(=O)[C@H](Cc1ccccc1)NC(=O)[C@@H](NC(=O)CNC(=O)[C@H](CCC(=O)O)NC(=O)[C@H](C)NC(=O)[C@@H](N)Cc1cnc[nH]1)[C@@H](C)O)[C@@H](C)O)C(C)C)C(=O)N[C@@H](CCC(=O)O)C(=O)N[C@@H](Cc1ccccc1)C(=O)N[C@H](C(=O)N[C@@H](C)C(=O)N[C@@H](Cc1c[nH]c2ccccc12)C(=O)N[C@@H](CC(C)C)C(=O)N[C@H](C(=O)N[C@@H](CCCNC(=N)N)C(=O)NCC(=O)N[C@@H](CCCNC(=N)N)C(=O)NCC(=O)O)C(C)C)[C@@H](C)CC)C(=O)O` [liraglutide], the “inhibition of fibrillation by aggregation inhibitor” value in data set [1] is given as “significantly inhibit fibrillation”. For the same compound, the “aggregation and drug polymer fiber formation” value in data set [2] was “prone to aggregation and even form drug polymer fibers”.

The values above are taken from patent publication US20260315398A1, “POLYPEPTIDE DRUG-CONTAINING SUSTAINED-RELEASE MICROSPHERE, PHARMACEUTICAL FORMULATION THEREOF, PREPARATION METHOD THEREFOR, AND USE THEREOF” (HUILLY PHARMA CO., LTD, priority 2023, published 2026).
